Measurements published in patent US20100222269A1, “IMPROVED DERIVATIVES OF AMYLIN” (priority 2007, published 2010).
Where two headings read alike, the source gives them in different places. Starred links: 1 amine or outer side, 2 acyl side, 3 side chain; linkers in the order of their positions; H or OH if unused. Positions of bridges follow the written chain, without caps; N, C: chain ends. Residues, ends and D or L forms follow the SMILES beside them. Groups on a side chain read outwards from the residue. *: point of attachment. C20 diacid = O=C(O)CCCCCCCCCCCCCCCCCCC(=O)*; C18 diacid = O=C(O)CCCCCCCCCCCCCCCCC(=O)*; γGlu = O=C(O)[C@H](CCC(=O)[*:2])N[*:1]; AEEA = NCCOCCOCC(=O)O

Molecular target: T1, Amylin 3(a) receptor (human calcitonin receptor (CTa) with RAMP-3) (Homo sapiens, UniProt O60896+P30988)
T1 construct: expressed in transfected cells; host or cells: BHK570 (baby hamster kidney) cells, stably transfected, with CRE-luciferase reporter
Assay: Amylin luciferase assay (CRE-luciferase reporter in BHK Amylin 3(a)//CRE-luc cells)
Type: cell-based
Description: It has previously been published (Poyner D R et al 2002, Pharmacological Reviews 54(2) 233-246) that activation of Amylin receptors (coexpression of Calcitonin receptor and receptor activity modifying peptides RAMPs) by Amylin leads to an increase in the intracellular concentration of cAMP. Consequently, transcription is activated at promotors containing multiple copies of the cAMP response element (CRE). It is thus possible to measure Amylin activity by use of a CRE luciferase reporter gene introduced into BHK cells also expressing an Amylin receptor.
2. Construction of an Amylin 3(a)/CRE-luc Cell Line
A BHK570 cell line stably transfected with the human calcitonin receptor (CTa) and a CRE-responsive luciferase reportergene. The cell line was further transfected with RAMP-3, using standard methods. This turns the Calcitonin receptor into an Amylin 3(a) receptor. Methotrexate, Neomycin, and Hygromycin are selection markers for luciferase, the Calcitonin receptor, and RAMP-3, respectively.
3. Amylin Luciferase Assay
To perform activity assays, BHK Amylin 3(a)//CRE-luc cells were seeded in white 96 well culture plates at a density of about 20.000 cells/well. The cells were in 100 μl growth medium (DMEM with 10% FBS, 1% Pen/Strep, 1 mM Na-pyruvate, 250 nM Methotrexate, 500 μg/ml Neomycin, and 400 μg/ml Hygromycin). After incubation overnight at 37° C. and 5% CO2, the growth medium was replaced by 50 μl/well assay medium (DMEM (without phenol red), Glumamax™, 10% FBS, and 10 mM Hepes, pH 7,4). Further, 50 μl/well of standard or sample in assay buffer were added. After 4 hours incubation at 37° C. and 5% CO2, the assay medium with standard or sample were removed and replaced by 100 μl/well PBS. Further, 100 μl/well LucLite™ was added. The plates were sealed and incubated at room temperature for 30 minutes. Finally, luminescence was measured on a TopCounter (Packard) in SPC (single photon counting) mode.

[1] = BHK570 cells with human calcitonin receptor (CTa), RAMP-3 and CRE-luciferase reporter, 4 hours incubation, read-out: Potency luciferase assay

T1 sequence (O60896 24-148): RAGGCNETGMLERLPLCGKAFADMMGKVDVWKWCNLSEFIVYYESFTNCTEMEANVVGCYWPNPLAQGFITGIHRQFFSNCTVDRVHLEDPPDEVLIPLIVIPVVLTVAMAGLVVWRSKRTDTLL
T1 sequence (P30988 25-474): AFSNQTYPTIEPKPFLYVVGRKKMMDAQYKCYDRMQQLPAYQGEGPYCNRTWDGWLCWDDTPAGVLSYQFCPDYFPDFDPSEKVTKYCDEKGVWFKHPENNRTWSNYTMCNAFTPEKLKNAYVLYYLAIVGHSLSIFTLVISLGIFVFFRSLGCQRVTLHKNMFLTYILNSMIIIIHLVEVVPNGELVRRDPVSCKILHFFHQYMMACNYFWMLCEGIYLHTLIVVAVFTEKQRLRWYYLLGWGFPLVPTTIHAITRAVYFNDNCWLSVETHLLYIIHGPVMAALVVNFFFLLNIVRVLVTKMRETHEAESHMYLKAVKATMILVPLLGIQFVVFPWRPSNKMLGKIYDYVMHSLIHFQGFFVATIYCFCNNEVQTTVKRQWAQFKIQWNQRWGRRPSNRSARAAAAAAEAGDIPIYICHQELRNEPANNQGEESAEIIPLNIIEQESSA

Compound | EC50 [nM] | EC50 [1] [nM]
CC[C@H](C)[C@H](NC(=O)[C@@H]1CCCN1C(=O)CNC(=O)[C@H](Cc1ccccc1)NC(=O)[C@H](CC(N)=O)NC(=O)[C@H](CC(N)=O)NC(=O)[C@H](CO)NC(=O)[C@H](CO)NC(=O)[C@H](Cc1c[nH]cn1)NC(=O)[C@@H](NC(=O)[C@H](CC(C)C)NC(=O)[C@H](Cc1ccccc1)NC(=O)[C@H](CC(N)=O)NC(=O)[C@H](C)NC(=O)[C@H](CC(C)C)NC(=O)[C@H](CCCNC(=N)N)NC(=O)[C@H](CCC(N)=O)NC(=O)[C@@H](NC(=O)[C@H](C)NC(=O)[C@@H]1CSSC[C@H](NC(=O)[C@@H](N)CCCCN)C(=O)N[C@@H](CCCCNC(=O)COCCOCCNC(=O)COCCOCCNC(=O)CC[C@H](NC(=O)CCCCCCCCCCCCCCCCC(=O)O)C(=O)O)C(=O)N[C@@H]([C@@H](C)O)C(=O)N[C@@H](C)C(=O)N[C@@H]([C@@H](C)O)C(=O)N1)[C@@H](C)O)C(C)C)C(=O)N[C@@H](CC(C)C)C(=O)N1CCC[C@H]1C(=O)N1CCC[C@H]1C(=O)N[C@H](C(=O)N[C@@H](CC(N)=O)C(=O)N[C@H](C(=O)NCC(=O)N[C@@H](CO)C(=O)N[C@@H](CC(N)=O)C(=O)N[C@H](C(=O)N[C@@H](Cc1ccc(O)cc1)C(N)=O)[C@@H](C)O)C(C)C)[C@@H](C)O [Example 11, N-epsilon3-[2-(2-{2-[2-(2-{2-[(S)-4-carboxy-4-(17-carboxyheptadecanoylamino)butyrylamino]ethoxy}ethoxy)acetylamino]ethoxy}ethoxy)acetyl]-[Lys3]-pramlintide (1-37)] (H-KCK([AEEA-AEEA-γGlu-C18 diacid])TATCATQRLANFLVHSSNNFGPILPPTNVGSNTY-NH2; disulfide 2-7; N-terminus assumed) | 0.2 | 
CC[C@H](C)[C@H](NC(=O)[C@@H]1CCCN1C(=O)CNC(=O)[C@H](Cc1ccccc1)NC(=O)[C@H](CC(N)=O)NC(=O)[C@H](CC(N)=O)NC(=O)[C@H](CO)NC(=O)[C@H](CO)NC(=O)[C@H](Cc1c[nH]cn1)NC(=O)[C@@H](NC(=O)[C@H](CC(C)C)NC(=O)[C@H](Cc1ccccc1)NC(=O)[C@H](CC(N)=O)NC(=O)[C@H](C)NC(=O)[C@H](CC(C)C)NC(=O)[C@H](CCCNC(=N)N)NC(=O)[C@H](CCC(N)=O)NC(=O)[C@@H](NC(=O)[C@H](C)NC(=O)[C@@H]1CSSC[C@H](NC(=O)[C@@H](N)CCCCN)C(=O)N[C@@H](CCCCNC(=O)COCCOCCNC(=O)COCCOCCNC(=O)CC[C@H](NC(=O)CCCCCCCCCCCCCCCCCCC(=O)O)C(=O)O)C(=O)N[C@@H]([C@@H](C)O)C(=O)N[C@@H](C)C(=O)N[C@@H]([C@@H](C)O)C(=O)N1)[C@@H](C)O)C(C)C)C(=O)N[C@@H](CC(C)C)C(=O)N1CCC[C@H]1C(=O)N1CCC[C@H]1C(=O)N[C@H](C(=O)N[C@@H](CC(N)=O)C(=O)N[C@H](C(=O)NCC(=O)N[C@@H](CO)C(=O)N[C@@H](CC(N)=O)C(=O)N[C@H](C(=O)N[C@@H](Cc1ccc(O)cc1)C(N)=O)[C@@H](C)O)C(C)C)[C@@H](C)O [Example 12, N-epsilon3-[2-(2-{2-[2-(2-{2[(S)-4-carboxy-4-(19-carboxynonadecanoylamino)butyrylamino]ethoxy}ethoxy)acetylamino]ethoxy}ethoxy)acetyl]-[Lys3]-pramlintide (1-37)] (H-KCK([AEEA-AEEA-γGlu-C20 diacid])TATCATQRLANFLVHSSNNFGPILPPTNVGSNTY-NH2; disulfide 2-7; N-terminus and C-terminus assumed) |  | 0.3
CC[C@H](C)[C@H](NC(=O)[C@@H]1CCCN1C(=O)CNC(=O)[C@H](Cc1ccccc1)NC(=O)[C@H](CC(N)=O)NC(=O)[C@H](CC(N)=O)NC(=O)[C@H](CO)NC(=O)[C@H](CO)NC(=O)[C@H](Cc1c[nH]cn1)NC(=O)[C@@H](NC(=O)[C@H](CC(C)C)NC(=O)[C@H](Cc1ccccc1)NC(=O)[C@H](CC(N)=O)NC(=O)[C@H](C)NC(=O)[C@H](CC(C)C)NC(=O)[C@H](CCCNC(=N)N)NC(=O)[C@H](CCC(N)=O)NC(=O)[C@@H](NC(=O)[C@H](C)NC(=O)[C@@H]1CSSC[C@H](NC(=O)[C@@H](N)CCCCN)C(=O)N[C@@H](CCCCNC(=O)COCCOCCNC(=O)COCCOCCNC(=O)CCCCCCCCCCCCCCCCCCC(=O)O)C(=O)N[C@@H]([C@@H](C)O)C(=O)N[C@@H](C)C(=O)N[C@@H]([C@@H](C)O)C(=O)N1)[C@@H](C)O)C(C)C)C(=O)N[C@@H](CC(C)C)C(=O)N1CCC[C@H]1C(=O)N1CCC[C@H]1C(=O)N[C@H](C(=O)N[C@@H](CC(N)=O)C(=O)N[C@H](C(=O)NCC(=O)N[C@@H](CO)C(=O)N[C@@H](CC(N)=O)C(=O)N[C@H](C(=O)N[C@@H](Cc1ccc(O)cc1)C(N)=O)[C@@H](C)O)C(C)C)[C@@H](C)O [Example 13, N-epsilon3-(2-{2-[2-(2-{2-[2-(19-carboxynonadecanoylamino)ethoxy]ethoxy}acetylamino)ethoxy]ethoxy}acetyl)-[Lys3]-pramlintide (1-37)] (H-KCK([AEEA-AEEA-C20 diacid])TATCATQRLANFLVHSSNNFGPILPPTNVGSNTY-NH2; disulfide 2-7; N-terminus assumed) |  | 0.06
CC[C@H](C)[C@H](NC(=O)[C@@H]1CCCN1C(=O)CNC(=O)[C@H](Cc1ccccc1)NC(=O)[C@H](CC(N)=O)NC(=O)[C@H](CC(N)=O)NC(=O)[C@H](CO)NC(=O)[C@H](CO)NC(=O)[C@H](Cc1c[nH]cn1)NC(=O)[C@@H](NC(=O)[C@H](CC(C)C)NC(=O)[C@H](Cc1ccccc1)NC(=O)[C@H](CC(N)=O)NC(=O)[C@H](C)NC(=O)[C@H](CC(C)C)NC(=O)[C@H](CCCNC(=N)N)NC(=O)[C@H](CCC(N)=O)NC(=O)[C@@H](NC(=O)[C@H](C)NC(=O)[C@@H]1CSSC[C@H](NC(=O)[C@@H](N)CCCCN)C(=O)N[C@@H](CCCCNC(=O)CCCCCCCCCCCCCCCCCCC(=O)O)C(=O)N[C@@H]([C@@H](C)O)C(=O)N[C@@H](C)C(=O)N[C@@H]([C@@H](C)O)C(=O)N1)[C@@H](C)O)C(C)C)C(=O)N[C@@H](CC(C)C)C(=O)N1CCC[C@H]1C(=O)N1CCC[C@H]1C(=O)N[C@H](C(=O)N[C@@H](CC(N)=O)C(=O)N[C@H](C(=O)NCC(=O)N[C@@H](CO)C(=O)N[C@@H](CC(N)=O)C(=O)N[C@H](C(=O)N[C@@H](Cc1ccc(O)cc1)C(N)=O)[C@@H](C)O)C(C)C)[C@@H](C)O [Example 14, N-epsilon3-(19-carboxynonadecanoyl)-[Lys3]-pramlintide (1-37)] (H-KCK(C20 diacid)TATCATQRLANFLVHSSNNFGPILPPTNVGSNTY-NH2; disulfide 2-7; N-terminus assumed) |  | 0.05
CC(C)C[C@H](NC(=O)[C@H](CC(N)=O)NC(=O)[C@H](CC(N)=O)NC(=O)[C@H](CO)NC(=O)[C@H](CO)NC(=O)[C@H](CCCNC(=N)N)NC(=O)[C@@H](NC(=O)[C@H](CC(C)C)NC(=O)[C@H](Cc1ccccc1)NC(=O)[C@H](CC(N)=O)NC(=O)[C@H](C)NC(=O)[C@H](CC(C)C)NC(=O)[C@H](CCCNC(=N)N)NC(=O)[C@H](CCC(N)=O)NC(=O)[C@@H](NC(=O)[C@H](C)NC(=O)[C@@H]1CSSC[C@H](NC(=O)CC[C@H](NC(=O)CCCCCCCCCCCCCCCCC(=O)O)C(=O)O)C(=O)N[C@@H](CC(N)=O)C(=O)N[C@@H]([C@@H](C)O)C(=O)N[C@@H](C)C(=O)N[C@@H]([C@@H](C)O)C(=O)N1)[C@@H](C)O)C(C)C)C(=O)NCC(=O)N1CCC[C@H]1C(=O)N[C@H](C(=O)N[C@@H](CC(C)C)C(=O)N1CCC[C@H]1C(=O)N1CCC[C@H]1C(=O)N[C@H](C(=O)N[C@@H](CC(N)=O)C(=O)N[C@H](C(=O)NCC(=O)N[C@@H](CO)C(=O)N[C@@H](CC(N)=O)C(=O)N[C@H](C(=O)N[C@@H](Cc1ccc(O)cc1)C(N)=O)[C@@H](C)O)C(C)C)[C@@H](C)O)C(C)C [Example 16, N-alpha-[(S)-4-carboxy-4-(17-carboxyheptadecanoylamino)butyryl]-[Arg18,Leu23,Val26]-pramlintide (2-37)] |  | 0.03
